Data taken from patent publication US4156009A, “Diazepine derivatives” (Hexachimie, priority 1977, dated 1979).

Legend:
Shay ulcers = test: Activity on Shay ulcers (pylorus ligation); assay type: in vivo, rat (male, OFA strain); details: 2 hours after binding; for Pepsin / pH / Volume / Acidity free / Acidity total: gastric liquid; for Acidity free / Acidity total: potentiometry; for Ulcers: number in the rumen; for Acidity free ds the secretion / Acidity total ds the secretion / Pepsin ds the secretion: whole secretion
Experimental: Male rats of the OFA strain, weighing 190-210 g, receive a solution of 20% glucose and […] sodium chloride as their only food for 3 days.
Under an ether anaesthetic, the pylorus is tied, while taking care not to include blood vessels in the binding. The tested product is administered intraperitoneally and the stomach is removed 2 hours after the binding. The gastric liquid is collected and the following parameters are measured:
free acidity (potentiometry)
total acidity (potentiometry)
peptic activity (hydrolysis of albumen of oxen and measurement of the tyrosine liberated).
The number of ulcers in the rumen are counted.

Acute toxicity = test: Acute toxicity; design: species or system rat; details: in vivo
[1] = system: ulcers caused by phenylbutazone; test: Protective activity as regards ulcers caused by phenylbutazone; assay type: in vivo, rat (male, OFA strain); details: for Ulceration Index: maximum index 300
Experimental: Male rats, of the OFA strain, weighing 160-180 g are placed on a diet of water 24 hours before the oral administration of the product studied (1 cm^3 /100 g). 30 minutes later, the rats receive 150 mg/kg phenylbutazone (1 cm^3 /100 g) orally.
The stomachs are removed 6 hours after the last treatment. Each stomach is classified according to the following scale:
The average of the results for a batch, multiplied by the percentage of rats having ulcers in this batch, gives an ulceration index whose maximum is 300.
The following Table I gives the ulceration indices and the protective dose 50 (PD50) which corresponds to the index 150.

[2] = 8 mg/kg intraperitoneally, p < 0.05
[3] = 16 mg/kg intraperitoneally, p < 0.01
[4] = 32 mg/kg intraperitoneally, p < 0.001
[5] = 32 mg/kg intraperitoneally, p < 0.01

## CN1C(=O)CN=C(c2ccccc2)c2c(C3CC3)csc21 [Example 6, 6-Cyclopropyl-1,3-dihydro-1-methyl-5-phenyl-2-oxo-2H-thieno[2,3-e]diazepine]
Shay ulcers; 8 mg/kg intraperitoneally, ns
  Pepsin: 0.67 mg/mL
  pH: 1.19
  Acidity free: 91 mEq/l
  Acidity total: 109 mEq/l
  Acidity free ds the secretion: 388 mEq/l
  Acidity total ds the secretion: 459 mEq/l
Shay ulcers; [2]
  Volume: 4.0 cm^3
  Pepsin ds the secretion: 2.66 mg
Shay ulcers; 16 mg/kg intraperitoneally, ns
  Pepsin: 0.67 mg/mL
  pH: 1.21
  Acidity free: 82 mEq/l
  Acidity total: 102 mEq/l
Shay ulcers; [3]
  Volume: 2.7 cm^3
  Acidity free ds the secretion: 275 mEq/l
  Acidity total ds the secretion: 335 mEq/l
  Pepsin ds the secretion: 1.83 mg
Shay ulcers; 32 mg/kg intraperitoneally, ns
  Pepsin: 0.64 mg/mL
Shay ulcers; [4]
  Volume: 1.7 cm^3
  Acidity free ds the secretion: 145 mEq/l
  Acidity total ds the secretion: 189 mEq/l
  Pepsin ds the secretion: 1.14 mg
Shay ulcers; 32 mg/kg intraperitoneally, p < 0.05
  pH: 1.67
Shay ulcers; [5]
  Acidity free: 56.5 mEq/l
  Acidity total: 80 mEq/l
Shay ulcers; 8 mg/kg intraperitoneally
  Ulcers: 0
Shay ulcers; 16 mg/kg intraperitoneally
  Ulcers: 0
Shay ulcers; 32 mg/kg intraperitoneally
  Ulcers: 0
Acute toxicity; po, orally in the rat, read-out: lethal dose LD50
  LD50: 915 mg/kg
Acute toxicity; LD50 / PD50, oral, rat, read-out: ratio of toxicity/activity or therapeutic index
  selectivity ratio: ~23
[1]; 16 mg/kg orally
  Ulceration Index: 240
[1]; 32 mg/kg orally
  Ulceration Index: 179
[1]; 64 mg/kg orally
  Ulceration Index: 62
[1]; 128 mg/kg orally
  Ulceration Index: 29
[1]; Rattus norvegicus, po, orally, corresponds to ulceration index 150, read-out: PD50 (protective dose 50)
  ED50: 39 mg/kg
